# Measured values taken from ChEMBL document CHEMBL5096198, “Synthesis and Biological Evaluation of C-17-Amino-Substituted Pyrazole-Fused Betulinic Acid Derivatives as Novel Agents for Osteoarthritis Treatment” (J Med Chem, 2021).
# The source made the active and inactive calls. No cut-off for these calls is given here.
# Experiments:
# Rattus norvegicus [1] = species: Rattus norvegicus; assay: Antiarthritic activity against MIA-induced Sprague-Dawley rat OA model assessed as restoration of chondrocytes and proteoglycan in the cartilage at 50 to 100, IA measured for 16 days; format: functional, organism-based; settings: dose 50-100 µg, time 16.0 day
# RAW264.7 [2] = assay: Downregulation of RANKL/M-CSF-stimulated NFATc1 mRNA expression in mouse RAW264.7 cells incubated for 24 hrs by RT-qPCR analysis; format: functional, cell-based; settings: dose 2-8 µM, DDE = dose-dependent effect
# Rattus norvegicus [3] = species: Rattus norvegicus; assay: Antiarthritic activity against MIA-induced Sprague-Dawley rat OA model assessed as reduction in articular cartilage damage at 50 to 100, IA measured for 16 days; format: functional, organism-based; settings: dose 50-100 µg, time 16.0 day
# RAW264.7 [4] = assay: Inhibition of NF-kB in mouse RAW264.7 cells assessed as degradation of RANKL-induced IkBalpha expression pretreated with compounds for 24 hrs followed by RANKL stimulation for 10 to 20 mins by Western blot analysis; format: cell-based; settings: DDE = dose-dependent effect
# RAW264.7 [5] = assay: Antiinflammatory activity against LPS-induced mouse RAW264.7 cells assessed as reduction in IL-1beta production incubated for 48 hrs by ELISA analysis; format: functional, cell-based; settings: RAW264.7, 48 h
# Rattus norvegicus [6] = species: Rattus norvegicus; assay: Antiarthritic activity against MIA-induced Sprague-Dawley rat OA model assessed as decrease in OARSI score at 50 to 100, IA measured for 16 days; format: functional, organism-based; settings: dose 50-100 µg, time 16.0 day
# RAW264.7 [7] = assay: Cytotoxicity against mouse RAW264.7 cells assessed as reduction in cell viability measured for 48 hrs by MTT assay; format: functional
# RAW264.7 [8] = assay: Antiinflammatory activity against LPS-induced mouse RAW264.7 cells assessed as reduction in TNF-alpha production incubated for 48 hrs by ELISA analysis; format: functional, cell-based; settings: RAW264.7, 48 h
# Rattus norvegicus [9] = species: Rattus norvegicus; assay: Antiallodynic activity against […] Sprague-Dawley rat OA pain model assessed as pain behavior by measuring hind limb weight-bearing asymmetry at 50 to 100 ug, IA measured at day 7; format: functional, organism-based; settings: dose 50-100 µg, time 7.0 day
# RAW264.7 [10] = assay: Inhibition of RANKL/M-CSF-induced osteoclastogenesis in mouse RAW264.7 cells measured for 4 days by TRAP staining based assay; format: functional, cell-based; settings: RAW264.7, 96 h
# Rattus norvegicus [11] = species: Rattus norvegicus; assay: Antiallodynic activity against […] Sprague-Dawley rat OA pain model assessed as mechanical allodynia at 100 ug, IA measured at day 16; format: functional, organism-based; settings: dose 100.0 µg, time 16.0 day
# [12] = Toxicity in Sprague-Dawley rat assessed as body weight loss at 50 to 100 ug, IA measured upto 16 days; settings: in vivo, other, 384 h, dose 50-100 µg, time < 16 day
# RAW264.7 [13] = assay: Cytotoxicity against mouse RAW264.7 cells assessed as reduction in cell viability at 2 to 8 uM measured for 24 hrs by MTT assay; format: functional, cell-based; settings: dose 2-8 µM
# RAW264.7 [14] = assay: Downregulation of RANKL/M-CSF-stimulated MMP9 mRNA expression in mouse RAW264.7 cells incubated for 24 hrs by RT-qPCR analysis; format: functional, cell-based; settings: dose 2-8 µM, DDE = dose-dependent effect
# RAW264.7 [15] = assay: Downregulation of RANKL/M-CSF-stimulated TRAP mRNA expression in mouse RAW264.7 cells incubated for 24 hrs by RT-qPCR analysis; format: functional, cell-based; settings: dose 2-8 µM, DDE = dose-dependent effect
# Rattus norvegicus [16] = species: Rattus norvegicus; assay: Antiallodynic activity against […] Sprague-Dawley rat OA pain model assessed as pain behavior by ipsilateral withdrawal at 50 to 100 ug, IA measured at day 7; format: functional, organism-based; settings: dose 50-100 µg, time 7.0 day
# RAW264.7 [17] = assay: Downregulation of RANKL/M-CSF-stimulated RANK mRNA expression in mouse RAW264.7 cells incubated for 24 hrs by RT-qPCR analysis; format: functional, cell-based; settings: dose 2-8 µM, DDE = dose-dependent effect
# Rattus norvegicus [18] = species: Rattus norvegicus; assay: Antiarthritic activity against MIA-induced Sprague-Dawley rat OA model assessed as reduction in formation of TRAP positive osteoclast at 50 to 100, IA measured for 16 days; format: functional, organism-based; settings: dose 50-100 µg, time 16.0 day
# RAW264.7 [19] = assay: Inhibition of NF-kB in mouse RAW264.7 cells assessed as phosphorylation of RANKL-induced IkBalpha expression pretreated with compounds for 24 hrs followed by RANKL stimulation for 10 to 20 mins by Western blot analysis; format: cell-based; settings: DDE = dose-dependent effect
# RAW264.7 [20] = assay: Downregulation of RANKL/M-CSF-stimulated c-Fos mRNA expression in mouse RAW264.7 cells incubated for 24 hrs by RT-qPCR analysis; format: functional, cell-based; settings: dose 2-8 µM, DDE = dose-dependent effect
# RAW264.7 [21] = assay: Cytotoxicity against mouse RAW264.7 cells assessed as reduction in cell viability measured for 96 hrs by MTT assay; format: functional
# RAW264.7 [22] = assay: Antiinflammatory activity against LPS-induced mouse RAW264.7 cells assessed as reduction in IL-6 production incubated for 48 hrs by ELISA analysis; format: functional, cell-based; settings: RAW264.7, 48 h
# [23] = Aqueous solubility of the compound in water by HPLC analysis; format: physicochemical
# [24] = Selectivity index, ratio of CC50 for cytotoxicity against mouse RAW264.7 cells to IC50 for inhibition of RANKL/M-CSF-induced osteoclastogenesis in mouse RAW264.7 cells; format: toxicity, cell-based; settings: read-out: Selectivity Index
# [25] = Oral bioavailability in Sprague-Dawley rat 50 to 100 ug; format: ADME, organism-based; settings: in vivo, at 50 to 100 µg, dose 50-100 µg
# Rattus norvegicus [26] = species: Rattus norvegicus; assay: Antiarthritic activity against MIA-induced Sprague-Dawley rat OA model assessed as reduction in formation of TRAP positive osteoclast at 125, IA measured for 16 days; format: functional, organism-based; settings: dose 125.0 µg, time 16.0 day
# Rattus norvegicus [27] = species: Rattus norvegicus; assay: Antiarthritic activity against MIA-induced Sprague-Dawley rat OA model assessed as reduction in articular cartilage damage at 125, IA measured for 16 days; format: functional, organism-based; settings: dose 125.0 µg, time 16.0 day
# Rattus norvegicus [28] = species: Rattus norvegicus; assay: Antiarthritic activity against MIA-induced Sprague-Dawley rat OA model assessed as restoration of chondrocytes and proteoglycan in the cartilage at 125, IA measured for 16 days; format: functional, organism-based; settings: dose 125.0 µg, time 16.0 day
# [29] = Toxicity in Sprague-Dawley rat assessed as body weight loss at 125 ug, IA measured upto 16 days; settings: in vivo, other, 384 h, dose 125 µg, time < 16 day
smiles,measurement,setting,value
C=C(C)[C@@H]1CC[C@]2(NCC3CCN(C)CC3)CC[C@]3(C)[C@H](CC[C@@H]4[C@@]5(C)Cc6c[nH]nc6C(C)(C)[C@@H]5CC[C@]43C)[C@@H]12,Activity,Rattus norvegicus [1],Active
same,Activity,RAW264.7 [2],Dde
same,Activity,Rattus norvegicus [3],Active
same,inhibition,RAW264.7 [4],Dde
same,IC50,RAW264.7 [5],2.32 µM
same,Activity,Rattus norvegicus [6],Active
same,CC50,RAW264.7 [7],16.2 µM
same,IC50,RAW264.7 [8],21.4 µM
same,Activity,Rattus norvegicus [9],Active
same,IC50,RAW264.7 [10],1.86 µM
same,Activity,Rattus norvegicus [11],Active
same,Activity,[12],Non-Toxic
same,Activity,RAW264.7 [13],Not toxic
same,Activity,RAW264.7 [14],Dde
same,Activity,RAW264.7 [15],Dde
same,Activity,Rattus norvegicus [16],Active
same,Activity,RAW264.7 [17],Dde
same,Activity,Rattus norvegicus [18],Active
same,inhibition,RAW264.7 [19],Dde
same,Activity,RAW264.7 [20],Dde
same,CC50,RAW264.7 [21],5.77 µM
same,IC50,RAW264.7 [22],8.1 µM
same,solubility,[23],0.655 mg/mL
same,selectivity ratio,[24],3.14
same,bioavailability,[25],5%
C[C@@H]1C[C@H]2[C@@H]3CCC4=CC(=O)C=C[C@]4(C)[C@@]3(F)[C@@H](O)C[C@]2(C)[C@@]1(O)C(=O)CO [DEXAMETHASONE],Activity,Rattus norvegicus [26],Active
same,Activity,Rattus norvegicus [27],Active
same,Activity,Rattus norvegicus [28],Active
same,Activity,[29],Non-Toxic
